Results reported in the supplement of paper PMC11061612.

Tests used:
Assay in all cases: combination Emax (second highest fraction inhibited in the dose matrix, 72 h); higher = more inhibition; extreme values may be limits of the assay
CHP-212 (Neuroblastoma) = tested on: CHP-212 (Neuroblastoma)
Summary of the method: (§1)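 Bliss excess equals the observed combination effect minus the expected value EA + EB − EA·EB, where EA and EB are the effects of each agent alone. Combination Emax is the second-highest inhibition within the matrix. Inhibition was scaled from CellTiter-Glo 2.0 luminescence, with 0 set by vehicle wells and 1 by blank wells, after 72 hours of two-drug dosing of cells plated in 1536-well plates.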

[1] = tested on: DND-41 (T-Lymphoblastic Leukemia)
Summary of the method: as §1

ES1 (Ewing's Sarcoma) = tested on: ES1 (Ewing's Sarcoma)
Summary of the method: as §1

[2] = tested on: GR-ST (B-Lymphoblastic Leukemia)
Summary of the method: as §1

[3] = tested on: HDQ-P1 (Breast Carcinoma)
Summary of the method: as §1

[4] = tested on: K-562 (Chronic Myelogenous Leukemia)
Summary of the method: as §1

[5] = tested on: KARPAS-45 (T-Lymphoblastic Leukemia)
Summary of the method: as §1

[6] = tested on: KCL-22 (Chronic Myelogenous Leukemia)
Summary of the method: as §1

[7] = tested on: L-540 (Hodgkin's Lymphoma)
Summary of the method: as §1

[8] = tested on: MFM-223 (Breast Carcinoma)
Summary of the method: as §1

[9] = tested on: MKN28 (Gastric Carcinoma)
Summary of the method: as §1

[10] = tested on: MS751 (Cervical Carcinoma)
Summary of the method: as §1

[11] = tested on: NCI-H1792 (Lung Adenocarcinoma)
Summary of the method: as §1

NCI-H2818 (Mesothelioma) = tested on: NCI-H2818 (Mesothelioma)
Summary of the method: as §1

[12] = tested on: NCI-H847 (Small Cell Lung Carcinoma)
Summary of the method: as §1

[13] = tested on: PANC-08-13 (Pancreatic Carcinoma)
Summary of the method: as §1

[14] = tested on: SR (Other Blood Carcinomas)
Summary of the method: as §1

[15] = tested on: SU-DHL-8 (B-Cell Non-Hodgkin's Lymphoma)
Summary of the method: as §1

TC-71 (Ewing's Sarcoma) = tested on: TC-71 (Ewing's Sarcoma)
Summary of the method: as §1

WM-115 (Melanoma) = tested on: WM-115 (Melanoma)
Summary of the method: as §1

CCN(CCO)CCCOc1ccc2c(Nc3cc(CC(=O)Nc4cccc(F)c4)[nH]n3)ncnc2c1 [AZD2811] + C[C@@H]1COCCN1C2=NC(=NC(=C2)C3(CC3)[S@](=N)(=O)C)C4=C5C=CNC5=NC=C4 [AZD6738] (first compound max 1 µM, 7x7, partner max 10 µM)
combination Emax (CHP-212 (Neuroblastoma)): 0.791 | combination Emax [1]: 0.908 | combination Emax (ES1 (Ewing's Sarcoma)): 0.948 | combination Emax [2]: 0.732 | combination Emax [3]: 0.391 | combination Emax [4]: 0.881 | combination Emax [5]: 0.948 | combination Emax [6]: 0.986 | combination Emax [7]: 0.921 | combination Emax [8]: 0.8 | combination Emax [9]: 0.519 | combination Emax [10]: 0.492 | combination Emax [11]: 0.655 | combination Emax (NCI-H2818 (Mesothelioma)): 0.405 | combination Emax [12]: 1 | combination Emax [13]: 0.36 | combination Emax [14]: 0.968 | combination Emax [15]: 0.918 | combination Emax (TC-71 (Ewing's Sarcoma)): 0.94 | combination Emax (WM-115 (Melanoma)): 0.523

CCN(CCO)CCCOc1ccc2c(Nc3cc(CC(=O)Nc4cccc(F)c4)[nH]n3)ncnc2c1 [AZD2811] + O=C(c1cc(Cc2n[nH]c(=O)c3ccccc23)ccc1F)N1CCN(C(=O)C2CC2)CC1 [Olaparib] (first compound max 1 µM, 7x7, partner max 10 µM)
combination Emax (CHP-212 (Neuroblastoma)): 0.771 | combination Emax [1]: 0.369 | combination Emax (ES1 (Ewing's Sarcoma)): 0.855 | combination Emax [2]: 0.448 | combination Emax [3]: 0.264 | combination Emax [4]: 0.366 | combination Emax [5]: 0.882 | combination Emax [6]: 0.417 | combination Emax [7]: 0.509 | combination Emax [8]: 0.274 | combination Emax [9]: 0.238 | combination Emax [10]: 0.243 | combination Emax [11]: 0.175 | combination Emax (NCI-H2818 (Mesothelioma)): 0.234 | combination Emax [12]: 0.956 | combination Emax [13]: 0.166 | combination Emax [14]: 0.875 | combination Emax [15]: 0.738 | combination Emax (TC-71 (Ewing's Sarcoma)): 0.755 | combination Emax (WM-115 (Melanoma)): 0.259

CN(CCO)CC[C@H](CSc1ccccc1)Nc1ccc(S(=O)(=O)NC(=O)c2ccc(N3CCC([C@@H](O)c4ccccc4-c4ccc(Cl)cc4)CC3)cc2)cc1S(=O)(=O)C(F)(F)F [AZD4320] + C=CCn1c(=O)c2cnc(Nc3ccc(N4CCN(C)CC4)cc3)nc2n1-c1cccc(C(C)(C)O)n1 [AZD1775] (first compound max 1 µM, partner max 1 µM)
combination Emax (CHP-212 (Neuroblastoma)): 0.809 | combination Emax [1]: 1 | combination Emax (ES1 (Ewing's Sarcoma)): 0.827 | combination Emax [2]: 0.765 | combination Emax [3]: 0.911 | combination Emax [4]: 0.871 | combination Emax [5]: 1 | combination Emax [6]: 0.937 | combination Emax [7]: 0.979 | combination Emax [8]: 0.383 | combination Emax [9]: 0.536 | combination Emax [10]: 0.262 | combination Emax [11]: 0.696 | combination Emax (NCI-H2818 (Mesothelioma)): 0.371 | combination Emax [12]: 1 | combination Emax [13]: 0.492 | combination Emax [14]: 1 | combination Emax [15]: 1 | combination Emax (TC-71 (Ewing's Sarcoma)): 0.926 | combination Emax (WM-115 (Melanoma)): 0.507

CN(CCO)CC[C@H](CSc1ccccc1)Nc1ccc(S(=O)(=O)NC(=O)c2ccc(N3CCC([C@@H](O)c4ccccc4-c4ccc(Cl)cc4)CC3)cc2)cc1S(=O)(=O)C(F)(F)F [AZD4320] + CN(C)CCCOc1ccc(-c2ccc3ncc4c(c3c2)n(C2CCOCC2)c(=O)n4C)cn1 [AZD0156] (first compound max 1 µM, 7x7, partner max 1 µM)
combination Emax (CHP-212 (Neuroblastoma)): 0.278 | combination Emax [1]: 1 | combination Emax (ES1 (Ewing's Sarcoma)): 0.226 | combination Emax [2]: 0.175 | combination Emax [3]: 0.465 | combination Emax [4]: 0.345 | combination Emax [5]: 0.988 | combination Emax [6]: 0.361 | combination Emax [7]: 0.224 | combination Emax [8]: 0.199 | combination Emax [9]: 0.0805 | combination Emax [10]: 0.101 | combination Emax [11]: 0.12 | combination Emax (NCI-H2818 (Mesothelioma)): 0.268 | combination Emax [12]: 1 | combination Emax [13]: 0.352 | combination Emax [14]: 0.252 | combination Emax [15]: 0.957 | combination Emax (TC-71 (Ewing's Sarcoma)): 0.659 | combination Emax (WM-115 (Melanoma)): 0.363
